Test results published in the C3SDB collision cross section collection.
Several values for one entry are separate records, joined by “and”; a condition that tells them apart may be missing. Equal values may be shown once. Where a name gives a salt, the structure may show the parent alone.

Conditions: instrument: TW, calibrated with polyalanine and drug standards

SMILES | collision cross section (N2) ([M+H]+) | also measured
CC(C)C[C@H](NC(=O)[C@H](C)N)C(=O)O [ALANYL-dl-LEUCINE] | 152.5 Å² | –
NCCCNCCSP(=O)(O)O [AMIFOSTINE] | 146.9 Å² | –
Nc1cc(-c2ccncc2)c[nH]c1=O [AMRINONE] | 139 Å² | –
COc1ccc2c(=O)c(CC(=O)O)coc2c1 [ANHYDROBRAZILIC ACID] | 143.1 Å² | –
CN1C2C[C@H](OC(=O)[C@H](CO)c3ccccc3)C[C@H]1[C@@H](O)C2 [ANISODAMINE HYDROBROMIDE] | 171.1 Å² | –
O=c1cc(-c2ccc(O)cc2)oc2cc(O[C@@H]3O[C@H](CO)[C@@H](O)[C@H](O)[C@H]3O[C@@H]3OC[C@](O)(CO)[C@H]3O)cc(O)c12 [APIIN] | 229.3 Å² | –
O=C1CCc2ccc(OCCCCN3CCN(c4cccc(Cl)c4Cl)CC3)cc2N1 [ARIPIPRAZOLE] | 203.5 Å² | –
c1cc2c(cc1[C@H]1OC[C@H]3[C@@H]1CO[C@H]3c1ccc3c(c1)OCO3)OCO2 [ASARININ (-)] | 171 Å² | –
CCCCCCCCCCCCCCCC(=O)OC[C@H](O)[C@H]1OC(=O)C(O)=C1O [ASCORBYL PALMITATE] | 204.8 Å² | –
COC(=O)[C@H](Cc1ccccc1)NC(=O)[C@@H](N)CC(=O)O [ASPARTAME] | 167.6 Å² | –
CC(C)=CCC/C(C)=C/COc1ccc2ccc(=O)oc2c1 [AURAPTENE] | 158.3 Å² | –
COc1ccc(C(=O)CC(=O)c2ccc(C(C)(C)C)cc2)cc1 [AVOBENZONE] | 181.2 Å² | –
C#CCCCCCCCCCCCC(O)CC(O)COC(C)=O (centres undefined) [AVOCADYNE ACETATE] | – | collision cross section (N2) ([M+Na]+): 184 Å²
O=C(CCCN1CCN(c2ccccn2)CC1)c1ccc(F)cc1 [AZAPERONE] | 180 Å² | –
Cn1cnc([N+](=O)[O-])c1Sc1ncnc2nc[nH]c12 [AZATHIOPRINE] | 155.1 Å² | –
O=c1cc(-c2ccccc2)oc2cc(O)c(O)c(O)c12 [BAICALEIN] | 153.8 Å² | –
CCCCCCCCCCCCCCCCCCOCC(O)CO (centres undefined) [BATYL ALCOHOL] | – | collision cross section (N2) ([M+Na]+): 202.8 Å²
O=C(CCCl)NCc1ccccc1 [BECLAMIDE] | 142.3 Å² | –
NS(=O)(=O)c1cc2c(cc1C(F)(F)F)NC(Cc1ccccc1)NS2(=O)=O (centres undefined) [BENDROFLUMETHIAZIDE] | 188.6 Å² | –
O=C(Oc1cccc2cccnc12)c1ccccc1 [BENZOXIQUINE] | 153.8 Å² | –
C[N+](C)(CCOc1ccccc1)Cc1ccccc1 [BEPHENIUM] | – | collision cross section (N2) ([M]+): 162.3 Å²
CN1CCc2cc3c(cc2[C@H]1[C@@H]1OC(=O)c2c1ccc1c2OCO1)OCO3 [BICUCULLINE (+)] | 180 Å² | –
c1ccc(-c2ccc(C(c3ccccc3)n3ccnc3)cc2)cc1 (centres undefined) [BIFONAZOLE] | 184.8 Å² | –
O=C(/C=C/C(=O)Oc1ccccc1C(=O)O)Oc1ccccc1C(=O)O [BISSALICYL FUMARATE] | 171.1 Å² | –
O=C1C=CC2=C3c4cc(O)c(O)cc4CC3(O)COC2=C1 (centres undefined) [BRAZILEIN] | 159.9 Å² | –

SMILES | collision cross section (N2) ([M+H]+) | also measured
CCCC1O[C@@H]2C[C@H]3[C@@H]4CCC5=CC(=O)C=C[C@]5(C)[C@H]4[C@@H](O)C[C@]3(C)[C@]2(C(=O)CO)O1 (some centres undefined) [BUDESONIDE] | 204.6 Å² | –
CC1=CC2C(C(C)C)CCC(C)(O)C2CC1 (centres undefined) [CADIN-4-EN-10-OL] | 145.9 Å² | –
CC(=O)OCC1(O)CC23CCC4c5ccoc5CCC4(C)C2CCC1C3 (centres undefined) [CAFESTOL ACETATE] | 169.3 Å² | –
NC(N)=NOCC[C@H](N)C(=O)O [CANAVANINE] | 133.3 Å² | –
CCCCCCCCCCCCCCC(C(=O)O)C(O)(CC(=O)OC)C(=O)O (centres undefined) [CAPERATIC ACID] | – | collision cross section (N2) ([M+Na]+): 211 Å²
NC(=O)N1c2ccccc2C=Cc2ccccc21 [CARBAMAZEPINE] | 149 Å² | –
C[C@@](Cc1ccc(O)c(O)c1)(NN)C(=O)O [CARBIDOPA] | 142.4 Å² | –
C=CC1=C(C(=O)O)N2C(=O)[C@@H](NC(=O)/C(=N\O)c3csc(N)n3)[C@H]2SC1 [CEFDINIR] | 190.5 Å² | –
CO/N=C(\C(=O)N[C@@H]1C(=O)N2C(C(=O)OCOC(=O)C(C)(C)C)=C(/C=C\c3scnc3C)CS[C@H]12)c1csc(N)n1 [CEFDITORIN PIVOXIL] | 238 Å² | –
COCC1=C(C(=O)OC(C)OC(=O)OC(C)C)N2C(=O)[C@@H](NC(=O)/C(=N\OC)c3csc(N)n3)[C@H]2SC1 (some centres undefined) [CEFPODOXIME PROXETIL] | 235.4 Å² and 228.3 Å² | –
OC[C@@H](O)[C@H]1O[C@@H]2O[C@H](C(Cl)(Cl)Cl)O[C@@H]2[C@H]1O [CHLORALOSE] | 163.2 Å² | –
O=C(N[C@H](CO)[C@H](O)c1ccc([N+](=O)[O-])cc1)C(Cl)Cl [CHLORAMPHENICOL] | – | collision cross section (N2) ([M+H-H2O]+): 163.9 Å²
NS(=O)(=O)c1cc2c(cc1Cl)NC=NS2(=O)=O [CHLOROTHIAZIDE] | 161 Å² | –
Oc1c(Cl)cc(Cl)c2cccnc12 [CHLOROXINE] | 134.3 Å² | –
CCOP(=S)(OCC)Oc1nc(Cl)c(Cl)cc1Cl [CHLORPYRIFOS] | 201.7 Å² | –
NS(=O)(=O)c1cc(C2(O)NC(=O)c3ccccc32)ccc1Cl (centres undefined) [CHLORTHALIDONE] | – | collision cross section (N2) ([M+H-H2O]+): 166.7 Å²
CC(C)CCC[C@@H](C)[C@H]1CC[C@H]2[C@@H]3C=CC4=CC(=O)CC[C@]4(C)[C@H]3CC[C@]12C [CHOLESTA-4,6-DIEN-3-ONE] | 208.3 Å² | –
C[C@H](CCC(=O)O)[C@H]1CC[C@H]2[C@@H]3[C@H](O)C[C@@H]4C[C@H](O)CC[C@]4(C)[C@H]3C[C@H](O)[C@]12C [CHOLIC ACID] | – | collision cross section (N2) ([M+Na]+): 195.6 Å²
CC(C)=CC1C(C(=O)O)C1(C)C (centres undefined) [CHRYSANTHEMIC ACID] | 130 Å² | –
O=C(O)c1cc(-c2ccccc2)nc2ccccc12 [CINCHOPHEN] | 154.3 Å² | –
CCn1nc(C(=O)O)c(=O)c2cc3c(cc21)OCO3 [CINOXACIN] | 148.5 Å² | –
COc1cc(OC)c2ccc(=O)oc2c1 [CITROPTEN] | 138.3 Å² | –
Oc1c(I)cc(Cl)c2cccnc12 [CLIOQUINOL] | 138.2 Å² | –
Cc1[nH]c(C)c(Cl)c(=O)c1Cl [CLOPIDOL] | 131.2 Å² | –
